From patent publication US6432954B1, “Pharmaceutical compositions and methods for use” (Targacept, Inc., priority 2000, dated 2002) come the findings set out here.

Molecules are shown by their SMILES.

Common to all, as to assay type: physicochemical
Data set [1] can be described thus: Water solubility of the salt. The source says:
(§1) The salts of the present invention which are derived from aryl substituted amines and 2,3-diacyl-tartaric acids have a number of advantages over other salts derived from aryl substituted amines and other acids, such as fumaric acid or galactaric acid. […] As such, the di-p-toluoyl-D-tartrate salt of (2S)-(4E)-N-methyl-5-[3-(5-isopropoxypyridin)yl)]-4-penten-2-amine is a free-flowing crystalline powder; and such a property is a definite advantage for pharmaceutical formulation development and pharmaceutical manufacturing. If necessary, this salt can be milled to an acceptable particle size range for pharmaceutical processing. […] The salt is compatible with a wide range of excipients that might be chosen for the manufacture of solid oral dosage forms. This is especially so for those exicipients, such polysaccharide derivatives, that are pharmaceutically defined hydrates and those with only loosely bound surface water. As an illustration, salts derived from certain aryl substituted amines, such as E-metanicotine and fumaric acid are prone to the formation of impurities within the salt. For example, impurities arise from the Michael addition reaction of the secondary amine in E-metanicotine to the olefin in fumaric acid. These impurities lower the chemical purity of the salt and adversely affect the chemical integrity of the salt upon long-term storage. […]

A short description of data set [2]: Water absorption (hygroscopicity) of the salt.
Excerpt: as §1

A short description of data set [3]: Physical and chemical stability of the salt.
Excerpt: as §1

With `CN[C@@H](C)C/C=C/c1cncc(OC(C)C)c1` [Sample No. 2, (2S)-(4E)-N-methyl-5-[3-(5-isopropoxypyridin)yl]-4-penten-2-amine hemi-(di-p-toluoyl-D-tartrate)], in data set [1], the water solubility entry is listed as “water soluble”. In addition, in data set [2] (room temperature and 90% relative humidity), the “amount of water absorbed” value was determined as 3.2%. Also, the stability entry in data set [3] was “physically and chemically stable”.
In the case of `CN[C@@H](C)C/C=C/c1cncc(OC(C)C)c1.CN[C@@H](C)C/C=C/c1cncc(OC(C)C)c1.O=C(O)[C@@H](O)[C@H](O)[C@H](O)[C@@H](O)C(=O)O` [hemigalactarate of (2S)-(4E)-N-methyl-5-[3-(5-isopropoxypyridin)yl)]-4-penten-2-amine, reference compound], in data set [2] (40° C. and 70% relative humidity), the “amount of water absorbed” value is 11.8%.
